Drawing on ChEMBL document CHEMBL3603809, “New Frontiers in Selective Human MAO-B Inhibitors” (J Med Chem, 2015), this text covers Ki and Ratio Ki for 7 compounds.

Test [1] has as its target T1, Amine oxidase [flavin-containing] B (Homo sapiens, UniProt P27338).
T1 sequence (P27338 whole entry): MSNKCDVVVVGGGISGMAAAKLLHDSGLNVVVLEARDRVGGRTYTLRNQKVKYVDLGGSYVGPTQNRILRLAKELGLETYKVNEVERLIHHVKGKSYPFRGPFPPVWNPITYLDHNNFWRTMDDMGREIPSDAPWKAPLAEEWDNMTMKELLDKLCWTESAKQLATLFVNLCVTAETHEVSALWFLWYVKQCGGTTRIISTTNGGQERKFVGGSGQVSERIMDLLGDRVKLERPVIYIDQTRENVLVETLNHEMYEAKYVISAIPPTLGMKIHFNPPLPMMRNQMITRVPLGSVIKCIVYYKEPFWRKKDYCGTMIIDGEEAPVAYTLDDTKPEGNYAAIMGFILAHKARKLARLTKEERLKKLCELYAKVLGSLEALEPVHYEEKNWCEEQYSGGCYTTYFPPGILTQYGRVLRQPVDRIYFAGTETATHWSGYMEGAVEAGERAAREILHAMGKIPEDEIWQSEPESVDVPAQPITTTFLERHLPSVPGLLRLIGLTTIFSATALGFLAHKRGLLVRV
The test can be described thus: Inhibition of human MAOB.

For a further test, the species on record is Homo sapiens. The test can be described thus: Selectivity index, ratio of Ki for human MAOA to Ki for human MAOB.
Test [2] addresses T1, Amine oxidase [flavin-containing] B. The test can be described thus: Competitive inhibition of human liver MAOB expressed in Pichia pastoris.
The nature of test [3]: Inhibition of baboon MAOB. More on the design: species or system Papio.

For orientation: Ki means the dissociation constant of the complex between target and ligand, obtained from inhibition or displacement. Read a low Ki as a stronger hold on the target. The compound `C#CCN(C)c1nc2nc(CCC3CCN(Cc4ccccc4)CC3)ccc2c(-c2ccccc2)c1C#N` displayed a Ki in test [1] of 32 nM. In the test filed under Homo sapiens, the Ratio Ki is > 3.
Turning to `CN(C)c1ccc(/N=C/c2ccccn2)cc1`, the Ratio Ki in the test listed under Homo sapiens was determined as 3.
`C(=C\Cc1ccccc1)/Cc1ccccc1` showed a Ki in test [2] of 35 nM.
`C#CN(C)Cc1ccc(C(=O)NC2CC(C)(C)N([O])C(C)(C)C2)cc1`: the affinity in test [1], expressed as Ki, was 22000 nM. This lies in the double-digit micromolar range.
Still for that read-out and setting: in the case of `Cn1c(=O)c2c(nc(OCc3ccc(Br)cc3)n2C)n(C)c1=O` it was 62 nM; in that of `Cn1c(=O)c2c(nc(OCc3cccc(Br)c3)n2C)n(C)c1=O`, 68 nM.
`Cn1c(=O)c2c(nc(/C=C/C=C/c3cccc(Br)c3)n2C)n(C)c1=O` returned an inhibition constant Ki in test [3] of 17 nM.
